pIC50: −log10 of the molar value. Read-outs that look alike come from different tables or passages of the source.

In general, pIC50 refers to −log10 of the IC50, conventionally taken in molar units.

Experiment [1] deals with histidine-tagged recombinant human TrkA, cytoplasmic domain (Homo sapiens (Human), UniProt P04629). The experiment is described as follows: TrkA ELISA Assay. Also: 2.5 nM TrkA. Format: biochemical. The note with it: read-out: TrkA Elisa Enzyme Assay IC50. On the procedure: An enzyme-linked immunosorbant assay (ELISA) was used to assess TrkA kinase activity in the presence of inhibitors. Immulon 4HBX 384-well microtiter plates (Thermo part #8755) were coated with a 0.025 mg/mL solution of poly (Glu, Ala, Tyr; 6:3:1; Sigma P3899). […] The assay buffer consisted of 25 mM MOPS pH 7.5, 0.005% (v/v) Triton X-100 and 5 mM MgCl2. The reaction mixture was removed from the plate by washing with PBS containing 0.1% (v/v) Tween 20. The phosphorylated reaction product was detected using 0.2 μg/mL of a phosphotyrosine specific monoclonal antibody (clone PY20) conjugated to horseradish peroxidase in conjunction with the TMB Peroxidase Substrate System (KPL). After the addition of 1M phosphoric acid, the chromogenic substrate color intensity was quantitated via absorbance at 450 nm. IC50 values were calculated using either a 4 or 5-parameter logistic curve fit.
Sequence of histidine-tagged recombinant human TrkA, cytoplasmic domain (P04629 440-796): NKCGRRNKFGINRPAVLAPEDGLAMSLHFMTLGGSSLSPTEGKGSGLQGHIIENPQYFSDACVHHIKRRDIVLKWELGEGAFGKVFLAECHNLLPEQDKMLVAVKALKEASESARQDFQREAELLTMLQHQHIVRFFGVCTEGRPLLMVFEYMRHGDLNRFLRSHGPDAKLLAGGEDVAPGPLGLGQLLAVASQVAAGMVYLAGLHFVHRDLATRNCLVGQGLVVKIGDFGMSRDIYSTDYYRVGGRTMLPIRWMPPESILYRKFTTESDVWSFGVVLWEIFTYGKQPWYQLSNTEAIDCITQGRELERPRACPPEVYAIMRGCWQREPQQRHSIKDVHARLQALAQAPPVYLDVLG
Table 1 provides averaged IC50 values for compounds of the invention when tested in this assay.

In experiment [2] the target is His-tagged recombinant human TrkA (cytoplasmic domain) (Homo sapiens (Human), UniProt P04629). The experiment is described as follows: TrkA Binding Assay (LanthaScreen Eu Kinase Binding Assay). On the procedure:
The ability of a compound to bind to TrkA was measured by Invitrogen's LanthaScreen™ Eu Kinase Binding Assay. […] After a 60-minute incubation at 22° C., the reaction was measured using the EnVision via TR-FRET dual wavelength detection, and the POC was calculated from the emission ratio. The compound dose response data was fit to a 4-parameter logistic model and IC50 was defined as the concentration of compound at 50 POC.

The mark [3] stands for this setting: averaged IC50 values, TR-FRET, 60-minute incubation at 22° C., 2% DMSO final.

Sequence of His-tagged recombinant human TrkA (cytoplasmic domain) (P04629 440-796): as above

On to `O=C1NCCNc2ncc(F)cc2[C@H]2CCCN2c2ccn3ncc1c3n2` [Example 12, (6R)-9-fluoro-2,11,13,16,20,21,24-heptaazapentacyclo[16.5.2.0^2,6.0^7,12.0^21,25]pentacosa-1(24),7,9,11,18(25),19,22-heptaen-17-one], for which, in experiment [1], the pIC50 was 7.00 to 9.00.
For the compound `CC1(C)CNC(=O)c2cnn3ccc(nc23)N2CCC[C@@H]2c2cc(F)cnc2OC1` [Example 36, (6R)-9-fluoro-15,15-dimethyl-13-oxa-2,11,17,21,22,25-hexaazapentacyclo [17.5.2.0^2,6.0^7,12.0^22,26]hexacosa-1(25),7,9,11,19(26),20,23-heptaen-18-one], in experiment [2], the pIC50 is 7.00 to 9.00.
In the case of `Fc1ccc2c(c1)[C@H]1CCCN1c1ccn3ncc(c3n1)CNCCO2` [Example 21, (6R)-9-fluoro-13-oxa-2,16,20,21,24-pentaazapentacyclo[16.5.2.0^2,6.0^7,12.0^21,25]pentacosa-1(24),7,9,11,18(25),19,22-heptaene], the pIC50 in experiment [1] was 5.52 to 7.00.
As for `O=C1NCC(O)COc2ncc(F)cc2[C@H]2CCCN2c2ccn3ncc1c3n2` (stereo partly drawn) [Example 6, (6R)-9-fluoro-15-hydroxy-13-oxa-2,11,17,21,22,25-hexaazapentacyclo-[17.5.2.0^2,6.0^7,12.0^22,26]hexacosa-1(25),7,9,11,19(26),20,23-heptaen-18-one], the pIC50 in experiment [1] (averaged IC50 values, […] TrkA, 500 μM ATP, 25 minutes at ambient temperature) is 7.00 to 9.00; in experiment [2] (setting [3]), 7.00 to 9.00.
For the compound `O=C1NCCCCOc2ncc(F)cc2[C@H]2CCCN2c2ccn3ncc1c3n2` [Example 10, (6R)-9-fluoro-13-oxa-2,11,18,22,23,26-hexaazapentacyclo[18.5.2.0^2,6.0^7,12.0^23,27]heptacosa-1(26),7,9,11,20(27),21,24-heptaen-19-one], the pIC50 in experiment [1] and in experiment [2] was 7.00 to 9.00 throughout.
As for `CS(=O)(=O)N1CCOc2ccc(F)cc2[C@H]2CCCN2c2ccn3ncc(c3n2)C1` [Example 25, (6R)-9-fluoro-16-methanesulfonyl-13-oxa-2,16,20,21,24-pentaazapentacyclo[16.5.2.0^2,6.0^7,12.0^21,25]pentacosa-1(24),7,9,11,18(25),19,22-heptaene], the pIC50 in experiment [1] was 7.00 to 9.00.
The same measure, in the same setting: then `Fc1ccc2c(c1)[C@H]1CCCN1c1ccn3ncc(c3n1)CNCCCO2` [Example 24, (6R)-9-fluoro-13-oxa-2,17,21,22,25-pentaazapentacyclo[17.5.2.0^2,6.0^7,12.0^22,26]hexacosa-1(25),7,9,11,19(26),20,23-heptaene], with 5.52 to 7.00.
In the case of `O=C(O)CN1CCOc2ccc(F)cc2[C@H]2CCCN2c2ccn3ncc(c3n2)C1` [Example 26, 2-[(6R)-9-fluoro-13-oxa-2,16,20,21,24-pentaazapentacyclo[16.5.2.0^2,6.0^7,12.0^21,25]pentacosa-1(24),7,9,11,18(25),19,22-heptaen-16-yl]acetic acid], the pIC50 in experiment [1] and in experiment [2] was 5.52 to 7.00 in each case.
Turning to `C[C@H]1CNC(=O)c2cnn3ccc(nc23)N2CCC[C@@H]2c2cc(F)cn(c2=O)C1` [Example 35, (6R,13S)-9-fluoro-13-methyl-2, 11, 15,19,20,23-hexaazapentacyclo [15.5.2.1^7,11.0^2,6.0^20,24]pentacosa-1(23),7,9,17(24),18,21-hexaene-16,25-dione], the pIC50 in experiment [2] was 7.00 to 9.00.
Regarding `O=C1NC[C@H](O)COc2ccc(F)cc2C2CC(F)(F)CN2c2ccn3ncc1c3n2` (single isomer, unassigned; diastereomer 2) [45 Diastereomer 2], the pIC50 in experiment [2] (setting [3]) was 7.00 to 9.00.
`CCNC(=O)N1CCCOc2ccc(F)cc2[C@H]2CCCN2c2ccn3ncc(c3n2)C1` [Example 28]: in experiment [1], the pIC50 is 7.00 to 9.00.
Still for that read-out and setting: under `CCNC(=O)N1CCOc2ccc(F)cc2[C@H]2CCCN2c2ccn3ncc(c3n2)C1` [Example 29, (6R)—N-ethyl-9-fluoro-13-oxa-2,16,20,21,24-pentaazapentacyclo-[16.5.2.0^2,6.0^7,12.0^21,25]pentacosa-1(24),7,9,11,18(25),19,22-heptaene-16-carboxamide] stands 7.00 to 9.00.
Consider `O=C1NC[C@@H](O)COc2ccc(F)cc2[C@@H]2C[C@@H](O)CN2c2ccn3ncc1c3n2` [Example 44-B, (4R,6S,15R)-9-fluoro-4,15-dihydroxy-13-oxa-2,17,21,22,25-pentaazapentacyclo [17.5.2.0^2,6.0^7,12.0^22,26]hexacosa-1(25),7(2),8,10,19(26),20,23-heptaen-18-one], for which the pIC50 in experiment [2] was 7.00 to 9.00.
As for `CC1(C)CNC(=O)c2cnn3ccc(nc23)N2CCC[C@@H]2c2cc(F)cn(c2=O)C1` [Example 40, (6R)-9-fluoro-13,13-dimethyl-2,11,15,19,20,23-hexaazapentacyclo [15.5.2.1^7,11.0^2,6.0^20,24]pentacosa-1(23),7,9,17(24),18,21-hexaene-16,25-dione], in experiment [2], the pIC50 was 7.00 to 9.00.
As for `O=C1NC[C@@H](O)Cn2cc(F)cc(c2=O)[C@H]2CCCN2c2ccn3ncc1c3n2` [Example 8], the negative logarithm of the IC50 (pIC50) in experiment [1] and in experiment [2] was 7.00 to 9.00 in each case.
As for `O=C1NCCCOc2ccc(F)cc2[C@@H]2C[C@@H](O)CN2c2ccn3ncc1c3n2` [Example 42-B, (4R,6S)-9-fluoro-4-hydroxy-13-oxa-2,17,21,22,25-pentaazapentacyclo [17.5.2.0^2,6.0^7,12.0^22,26]hexacosa-1(25),7(12),8,10,19(26),20,23-heptaen-18-one], in experiment [2] (setting [3]), the pIC50 was 5.52 to 7.00.
As to `O=C1NC[C@H](O)COc2ccc(F)cc2C2CC(F)(F)CN2c2ccn3ncc1c3n2` (single isomer, unassigned; diastereomer 1) [45 Diastereomer 1], the pIC50 in experiment [2] (setting [3]) was 7.00 to 9.00.
For the compound `O=C1NC[C@@H](F)Cn2cc(F)cc(c2=O)[C@H]2CCCN2c2ccn3ncc1c3n2` [Example 17, (6R,13R)-9,13-difluoro-2,11,15,19,20,23-hexaazapentacyclo[15.5.2.1^7,11.0^2,6.0^20,24]pentacosa-1(23),7,9,17(24),18,21-hexaene-16,25-dione], the pIC50 in experiment [1] was 7.00 to 9.00.
The same measure, in the same setting: under `CC(=O)N1CCOc2ccc(F)cc2[C@H]2CCCN2c2ccn3ncc(c3n2)C1` [Example 22, 1-[(6R)-9-fluoro-13-oxa-2,16,20,21,24-pentaazapentacyclo[16.5.2.0^2,6.0^7,12.0^21,25]pentacosa-1(24),7,9,11,18(25),19,22-heptaen-16-yl]ethan-1-one] stands 7.00 to 9.00.
Turning to `O=C1NC[C@@H](O)COc2ccc(F)cc2[C@H]2C[C@@H](O)CN2c2ccn3ncc1c3n2` [Example 44, (4R,6R,15R)-9-fluoro-4,15-dihydroxy-13-oxa-2,17,21,22,25-pentaazapentacyclo [17.5.2.0^2,6.0^7,12.0^22,26]hexacosa-1(25),7(12),8,10,19(26),20,23-heptaen-18-one], the pIC50 in experiment [2] was 7.00 to 9.00.
Consider `O=C1NCCCNc2ncc(F)cc2[C@H]2CCCN2c2ccn3ncc1c3n2` [Example 13, (6R)-9-fluoro-2,11,13,17,21,22,25-heptaazapentacyclo[17.5.2.0^2,6.0^7,12.0^22,26]hexacosa-1(25),7,9,11,19(26),20,23-heptaen-18-one], for which the pIC50 in experiment [1] was 7.00 to 9.00.
On to `O=C1NCCOc2ccc(F)cc2[C@@H]2C[C@@H](O)CN2c2ccn3ncc1c3n2` [Example 43-B, (4R,6S)-9-fluoro-4-hydroxy-13-oxa-2,16,20,21,24-pentaazapentacyclo [16.5.2.0^2,6.0^7,2.0^21,25]pentacosa-1(24),7,9,11,18(25),19,22-heptaen-17-one], for which the pIC50 in experiment [2] (setting [3]) is 5.52 to 7.00.
For the compound `CS(=O)(=O)N1CCCOc2ccc(F)cc2[C@H]2CCCN2c2ccn3ncc(c3n2)C1` [Example 27, (6R)-9-fluoro-7-methanesulfonyl-13-oxa-2,17,21,22,25-pentaazapentacyclo[17.5.2.0^2,6.0^7,12.0^22,26]hexacosa-1(25),7,9,11,19(26),20,23-heptaene], the pIC50 in experiment [1] was 7.00 to 9.00.
As for `O=C1NCCOc2ccc(F)cc2[C@H]2C[C@@H](O)CN2c2ccn3ncc1c3n2` [Example 43, (4R,6R)-9-fluoro-4-hydroxy-13-oxa-2,16,20,21,24-pentaazapentacyclo [16.5.2.0^2,6.0^7,12.0^21,25]pentacosa-1(24),7,9,11,18(25),19,22-heptaen-17-one], the pIC50 in experiment [2] was 7.00 to 9.00.
On the same count and under the same terms, under `O=C1NCCCOc2ccc(F)cc2[C@H]2C[C@@H](O)CN2c2ccn3ncc1c3n2` [Example 42, (4R,6R)-9-fluoro-4-hydroxy-13-oxa-2,17,21,22,25-pentaazapentacyclo [17.5.2.0^2,6.0^7,12.0^22,26]hexacosa-1(25),7(12),8,10,19(26),20,23-heptaen-18-one] stands 7.00 to 9.00.
Consider `O=C1NC[C@H](O)COc2ccc(F)cc2[C@@H]2C[C@@H](O)CN2c2ccn3ncc1c3n2` [Example 41-B, (4R,6S,15S)-9-fluoro-4,15-dihydroxy-13-oxa-2,17,21,22,25-pentaazapentacyclo [17.5.2.0^2,6.0^7,12.0^22,26]hexacosa-1(25),7(12),8,10,19(26),20,23-heptaen-18-one], for which, in experiment [2] (setting [3]), the pIC50 was 5.52 to 7.00.

(Values after patent US9718822B2, “Macrocyclic compounds as Trk kinase inhibitors” (Array BioPharma, Inc., priority 2010, dated 2017).)
